Experimental data: patent US7951789B2 (priority 2006, dated 2011)
Like-named read-outs stand apart in the source and are kept apart here.

Legend:
[1] = system: endogenous HBV polymerase activity; test: HBV drug susceptibility assay (EPA read-out); assay type: cell-based; settings: for SI: CC50/EC50, HBV Cell Assay (EPA Read-out); for EC50: HBV Cell Assay (EPA Read-out), collagen plates, read-out: Antiviral Activity (EC50 in μM)
Procedure: • a) Collagen-I coated cell culture plates were seeded with cells at a density of 0.25-0.5×10^6 cells per well in 2 ml of growth/selection media. • b) Drug stock solutions were made up freshly in 100% DMSO as 200× stocks. Seven 4-fold dilutions of test compound were prepared ranging from 2.5 μM to 0.0006 μM (final). Master drug dilutions were divided into 4 aliquots, and then stored at −20° C. until used. • c) One day after cells were seeded, drug treatments were initiated by adding 10 μl of drug dilution along with 2 ml of fresh growth/selection media. […] The no-drug control wells received 10 μl of DMSO in fresh media. • d) Cells were treated every-other-day with 2 ml of fresh drug combinations/medium for a total of 8 days. Cell lysates were then collected on day 10 as described below and endogenous polymerase assay were performed. Preparation of Nucleocapsid-Containing Lysates for Epa Analysis • a) Two days after the final drug treatment, cells were harvested. • b) Media was carefully aspirated and the cell monolayers were rinsed once with 1 ml of PBS. • c) 1 ml of lysis buffer (50 mM Tris-HCl pH 7.5/150 mM NaCl/5 mM MgCl2/0.2% NP-40) was added to each well. The detergent is required to strip the outer envelope from virions and to allow capture of the inner nucleocapsids. Plates were kept on ice for >30 min. • d) Lysed cells were transferred to 1.5 ml-microfuge tubes. • e) Lysates were clarified by spinning at room temperature for 5 min at 14,000 rpm. • f) Clarified lysates were transferred to fresh tubes and immediately frozen on dry-ice, then stored at −80° C. until endogenous polymerase assays can be performed as described below. Endogenous Polymerase Assay (EPA) of Cell Lysates • a) EPAs were performed essentially as described in Seifer, et al (1998). J. Virol. 72: 2765-2776. […] The detergent is required to enhance permeability of the nucleocapsids. • d) Following digestion with 1 mg/ml of Proteinase K for 1 hour at 37° C., endogenously ^33P-labeled HBV DNA was liberated via phenol/chloroform extraction. • e) The nucleic acids were then precipitated with one volume of 5 M NH4-acetate and 2.5 volumes 100% EtOH, and separated on a 1% native agarose gel in Tris-borate buffer. • f) Gels were blotted onto positively charged nylon membrane overnight at room temperature via capillary transfer in 0.4 N NaOH. • g) Dried membranes were exposed to a phosphoimager screen (GE Healthcare) overnight at room temperature, then scanned (Storm 860, GE Healthcare) and quantitated with ImageQuant software (GE Healthcare). • h) Dose-response curves were generated using XLfit 4.1 software. The mean effective drug concentrations that inhibit endogenous HBV polymerase activity by 50% were calculated from several independent experiments. Cytotoxicity Determination

[2] = In vitro cytotoxicity assay in HepG2 cells (MTS); assay type: cell-based; settings: human, collagen plates
Procedure: (§1) A standard in vitro cytotoxicity assay was performed in HepG2 cells. Cells were exposed to drug for 9 days. Cell viability was determined via MTS staining using a CellTiter 96 Aqueous One Solution cell proliferation assay according to the manufacturer's instructions. • a) HepG2 cells were seeded in 96-well tissue culture plates in 100 μl fresh growth media at 7×10^3 cells per well. • b) Drug stock solutions were made up in 100% DMSO as 400× stock solutions and stored at −20° C. until used. • c) Four hours after cells were plated the drug dilutions were prepared and then added to the cells. Cells received up to 100 μM of drug in a total of 200 μl of fresh growth media containing 0.25% DMSO. Control wells received growth media with 0.25% DMSO growth media. Plates were incubated at 37° C., 5% CO2. • d) Cells were treated every-other-day with fresh growth media and fresh drug dilutions for a total of 8 days as described above. • e) On day 9, cell viability of HepG2 cells was determined by adding 20 μl of MTS CellTiter 96 Aqueous One Solution.

[3] = system: wild-type HBV (intracellular nucleocapsids); test: Anti-HBV activity in HBV nucleocapsids (RI) via endogenous polymerase assay (EPA); assay type: cell-based; settings: Hepatitis B virus; wild-type HBV producer cell line, intracellular nucleocapsids, EPA; read-out: RI EC50
Procedure: Compounds were tested in an anti-HBV assay. Determination of anti-HBV activity in HBV virions and nucleocapsids via endoenous polymerase assays (EPA)
• 1. 12-well collagen-I coated plates were seeded with producer cells expressing wild-type HBV at a density of 0.5-1×10^6 cells per well in 2 ml growth/selection media. • 2. Drug stock solutions were made up freshly in 100% DMSO as 200× stocks. Five additional 4-fold dilutions were prepared from these 200× stock in 100% DMSO. For each experiment, 4 aliquots of each drug dilution series were stored at −20° C. until used. • 3. Once cells reached confluency (1 day after cells were seeded), drug treatment was initiated by adding 10 μl of drug dilution into 2 ml of fresh growth/selection media. […] The no-drug control wells received only 10 μl of DMSO in fresh media. • 4. Cells were treated every-other-day with 2 ml of fresh drug/medium for a total of 8 days. Cell lysates were then collected on day 10 and subjected to EPA analysis as described below. Preparation of Nucleocapsid-Containing Lysates for Epa Analysis • 1. Cells were grown for 3 to 4 days in 12-well collagen-I coated plates until confluent. • 2. Media was carefully aspirated and the cell monolayers were rinsed once with 1 ml of PBS. • 3. One ml of lysis buffer (50 mM Tris-HCl pH 7.5/150 mM NaCl/5 mM MgCl2/0.2% NP-40) was added to each well. Plates were stored on ice for 30 min to 4 h. • 4. Lysed cells were transferred to 1.5 ml-microfuge tubes. • 5. Lysates were clarified by spinning at 14,000 rpm for 5 min at room temperature. • 6. Clarified lysates were transferred to fresh tubes and immediately frozen on dry-ice, then stored at −80° C. until endogenous polymerase assays were performed as described below. Preparation of Secreted Virions from Supernatant for Epa Analysis • 1. Cells were grown for 3 to 4 days in 12-well collagen-I coated plates until confluent. • 2. Media was carefully aspirated and transferred to 1.5 ml-microfuge tubes. • 3. Supernatants were clarified by spinning at 14,000 rpm for 5 min at room temperature. • 4. Clarified supernatants were transferred to fresh tubes and immediately frozen on dry-ice, then stored at −80° C. until endogenous polymerase assays were performed essentially as described below. Endogenous Polymerase Assay (EPA) of Cell Lysates and Supernatants • 1. EPAs were performed essentially as described by Seifer et al (1998). Intracellular HBV nucleocapsids were immunoprecipitated from the cytoplasmic lysates overnight at 4° C. with a polyclonal rabbit anti-HBcAg antibody and immobilized on protein A sepharose CL-4B beads. Secreted virions were immunoprecipitated from clarified cell supernatants overnight at 4° C. with a monoclonal mouse anti-LS antibody (MA18/7) in the absence of detergent. • 2. Following 3 washes of the immobilized capsids or virions with 1 ml of EPA wash buffer (75 mM NH4Cl, 50 mM Tris-HCl pH 7.4, 1 mM EDTA), endogenous polymerase reactions were initiated by adding 50 μl of detergent-containing EPA cocktail (50 mM Tris-HCl pH7.4, 75 mM NH4Cl, 1 mM EDTA, 20 mM MgCl2, 0.1 mM β-ME, 0.5% NP-40, 100 μM cold dGTP, TTP, dCTP, and 50 nM ^33P-dATP) and incubated overnight at 37° C. The detergent is required to strip the outer envelope from immunoprecipitated virions as well as to enhance permeability of the nucleocapsids. • 3. Following digestion with 1 mg/ml of proteinase K for 1 h at 37° C., endogenously ^33P-labeled HBV DNA was liberated via phenol/chloroform extraction. • 4. The nucleic acids were precipitated with 1 volume of 5M NH4-acetate and 2.5 volumes of 100% EtOH, and then separated on a 1% native agarose gel in Tris-borate-EDTA buffer. • 5. Gels were blotted onto positively charged nylon membrane overnight at room temperature via capillary transfer in 0.4 N NaOH. • 6. Dried membranes were exposed to a Phosphorlmager screen (GE Healthcare) overnight at room temperature, then scanned (Storm 860, GE Healthcare) and quantitated with ImageQuant software (GE Healthcare). • 7. […]

HBV wt (HepG2) = test: Anti-HBV activity in HBV-infected HepG2 cells; assay type: cell-based; settings: N=3
Procedure: The compound of Example 1 (NM 204) (Hydroxy-tBuSATE N-benzylphosphoramidate derivative of L-ddA) (A550) was contacted with HBV-infected HepG2 cells. EC50 values were measured according to standard techniques.

HepG2 cells = test: In vitro cytotoxicity assay in HepG2 cells (MTS); assay type: cell-based; settings: 9 days, collagen plates
Procedure: as §1

[4] = system: HCV Conl subgenomic replicon (GS4.1 cells); test: HCV replicon assay (NS4A ELISA, HCV ELISA 2); assay type: cell-based; settings: Hepatitis C virus; GS4.1 cells, 72 hours, NS4A ELISA; read-out: HCV ELISA 2 EC50
Method in brief: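 Huh-7 GS4.1 replicon cells treated 72 h at 37° C. with ten 2-fold dilutions from 75 μM (or single 15 μM), 0.5% DMSO; NS4A measured by ELISA, absorbance 492 nm, replicon-free Huh-7 as negative control. EC50 by four-parameter sigmoidal fit. CC50 from same treatment by MTS-type Cell Titer 96 viability.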

[5] = Cytotoxicity evaluation in GS4.1 cells (Cell Titer 96 AQueous One Solution); assay type: cell-based; settings: human, 72 hours

## Nc1ncnc2c1ncn2CCOCP(=O)(O)O [PMEA]
[1]
  SI: >310
[1]; Hepatitis B virus
  EC50: 0.328 ± 0.082 µM
[2]
  CC50 at 9 days: > 100 µM
[3]
  EC50: < 1 µM

## Cc1cn([C@@H]2C[C@@H](O)[C@H](CO)O2)c(=O)[nH]c1=O [LdT]
[1]
  SI: >273
  EC50: 0.366 ± 0.056 µM
HBV wt (HepG2)
  EC50: 0.26 ± 0.048 µM
HepG2 cells
  CC50: > 100 µM

## CC(C)(CO)C(=O)SCCOP(=O)(NCc1ccccc1)OC[C@H]1O[C@@H](n2ccc(N)nc2=O)[C@]2(C)OC(=O)O[C@H]12 (some centres unmarked) [Example B302, Hydroxy-tBuSATE N-benzylphosphoramidate 2′,3′-cyclic carbonate Derivative of 2′-C-methylcytidine]
[4]
  EC50: 1 to 10 µM
other
  melting point: 100 to 102 °C
[5]
  CC50: > 75 µM
